Reference: ChEMBL document CHEMBL1201862, “PubChem BioAssay data set” (2004)
Activity calls are given as the source filed them.

Columns and labels:
[1] = molecular target: T1, Tyrosyl-DNA phosphodiesterase 2 (Homo sapiens, UniProt O95551); experiment: human TDP2 enzyme inhibitors, dose response, biochemical, epi absorbance, IC50 (AID 743297)
T1 sequence (O95551 whole entry): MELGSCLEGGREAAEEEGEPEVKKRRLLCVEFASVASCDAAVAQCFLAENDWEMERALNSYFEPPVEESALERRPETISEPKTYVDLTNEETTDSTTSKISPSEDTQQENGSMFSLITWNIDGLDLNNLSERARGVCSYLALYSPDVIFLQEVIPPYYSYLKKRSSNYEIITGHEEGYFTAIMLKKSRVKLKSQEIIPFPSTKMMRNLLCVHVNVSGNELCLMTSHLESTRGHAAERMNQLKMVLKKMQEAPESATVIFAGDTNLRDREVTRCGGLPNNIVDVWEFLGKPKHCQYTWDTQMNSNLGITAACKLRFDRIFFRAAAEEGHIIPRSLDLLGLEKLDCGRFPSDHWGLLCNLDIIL

[2] = molecular target: T2, Sentrin-specific protease 7 (Homo sapiens, UniProt Q9BQF6); assay type: functional;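 also: Luminescence-based dose-response confirmation of ultra-high-throughput screening hits, measuring inhibition of SENP7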
T2 sequence (Q9BQF6 whole entry): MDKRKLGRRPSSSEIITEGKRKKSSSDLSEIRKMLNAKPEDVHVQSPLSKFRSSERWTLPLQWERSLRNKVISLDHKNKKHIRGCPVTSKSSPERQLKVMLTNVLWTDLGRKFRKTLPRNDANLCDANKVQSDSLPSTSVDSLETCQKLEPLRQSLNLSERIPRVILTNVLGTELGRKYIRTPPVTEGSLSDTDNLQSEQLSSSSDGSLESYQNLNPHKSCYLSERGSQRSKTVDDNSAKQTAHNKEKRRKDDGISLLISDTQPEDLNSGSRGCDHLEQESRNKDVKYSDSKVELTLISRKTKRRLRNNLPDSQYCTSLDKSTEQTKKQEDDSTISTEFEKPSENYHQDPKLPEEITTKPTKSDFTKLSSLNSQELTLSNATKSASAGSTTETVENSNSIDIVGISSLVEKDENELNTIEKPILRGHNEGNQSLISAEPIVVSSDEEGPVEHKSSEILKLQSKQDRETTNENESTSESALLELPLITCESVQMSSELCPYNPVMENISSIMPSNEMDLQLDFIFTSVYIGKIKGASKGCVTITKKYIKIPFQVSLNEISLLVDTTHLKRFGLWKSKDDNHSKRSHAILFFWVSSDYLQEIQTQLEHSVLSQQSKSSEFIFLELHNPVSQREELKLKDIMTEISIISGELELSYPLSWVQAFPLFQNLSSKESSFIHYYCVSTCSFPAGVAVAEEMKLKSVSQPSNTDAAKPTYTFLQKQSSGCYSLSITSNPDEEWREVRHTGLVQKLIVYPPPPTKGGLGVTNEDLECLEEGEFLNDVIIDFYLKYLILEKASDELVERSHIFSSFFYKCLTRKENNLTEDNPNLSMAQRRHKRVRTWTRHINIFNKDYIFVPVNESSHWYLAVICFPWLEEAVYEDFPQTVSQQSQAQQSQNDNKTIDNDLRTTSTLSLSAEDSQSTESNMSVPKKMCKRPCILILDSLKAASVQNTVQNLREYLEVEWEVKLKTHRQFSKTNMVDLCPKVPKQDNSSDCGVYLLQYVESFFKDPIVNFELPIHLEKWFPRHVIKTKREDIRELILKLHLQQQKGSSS

Caspase-3 = molecular target: T3, Caspase-3 (Homo sapiens, UniProt P42574); assay type: functional;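 also: Dose-response selectivity test against caspase-3 for candidate inhibitors of sentrin-specific proteases (SENPs)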
T3 sequence (P42574 whole entry): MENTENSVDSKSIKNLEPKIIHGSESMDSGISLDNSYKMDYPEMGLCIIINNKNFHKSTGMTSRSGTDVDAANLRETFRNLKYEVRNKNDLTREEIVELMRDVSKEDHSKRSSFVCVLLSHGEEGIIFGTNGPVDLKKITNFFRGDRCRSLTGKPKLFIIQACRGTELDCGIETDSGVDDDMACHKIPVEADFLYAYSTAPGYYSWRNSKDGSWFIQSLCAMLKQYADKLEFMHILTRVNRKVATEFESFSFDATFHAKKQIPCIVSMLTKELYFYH

Protein RecA = molecular target: T4, Protein RecA (Mycobacterium tuberculosis, UniProt P9WHJ3); experiment: Fluorescence Cell-Free Homogeneous Dose Retest to Identify Inhibitors of RecA-Intein Splicing Activity. [Related pubchem assays (depositor defined):AID2097, AID2223, AID489010, AID492950]; assay type: functional
T4 sequence (P9WHJ3 whole entry): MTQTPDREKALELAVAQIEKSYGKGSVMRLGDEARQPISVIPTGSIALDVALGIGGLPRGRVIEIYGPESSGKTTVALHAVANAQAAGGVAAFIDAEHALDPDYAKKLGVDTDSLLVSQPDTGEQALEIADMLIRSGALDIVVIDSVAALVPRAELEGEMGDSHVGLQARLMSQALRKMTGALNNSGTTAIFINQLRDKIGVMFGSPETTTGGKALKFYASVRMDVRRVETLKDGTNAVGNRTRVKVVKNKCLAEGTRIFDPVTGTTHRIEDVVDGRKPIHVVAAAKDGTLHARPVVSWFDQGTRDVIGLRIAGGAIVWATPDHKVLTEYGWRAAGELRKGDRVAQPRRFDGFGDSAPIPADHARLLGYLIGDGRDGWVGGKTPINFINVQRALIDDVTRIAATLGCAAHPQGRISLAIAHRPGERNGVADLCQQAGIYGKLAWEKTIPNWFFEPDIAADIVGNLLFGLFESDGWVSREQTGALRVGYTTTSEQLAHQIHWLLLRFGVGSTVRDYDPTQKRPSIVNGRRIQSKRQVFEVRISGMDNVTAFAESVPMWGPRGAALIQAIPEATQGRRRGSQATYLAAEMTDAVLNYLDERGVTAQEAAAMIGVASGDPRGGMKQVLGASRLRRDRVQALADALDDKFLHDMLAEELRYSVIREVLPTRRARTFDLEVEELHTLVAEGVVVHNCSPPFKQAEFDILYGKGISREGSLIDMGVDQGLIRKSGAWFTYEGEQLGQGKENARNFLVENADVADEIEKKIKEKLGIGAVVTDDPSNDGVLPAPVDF

SMILES | IC50 [1] | IC50 [2] | IC50 (Caspase-3) | EC50 (Protein RecA)
CCCCn1c(NC(=O)c2ccco2)c(C(=O)OCC)c2nc3ccccc3nc21 | > 128 µM (inactive) | 10.1 µM (active) | 15.8 µM (active) | –
Cc1ccccc1NC1=C/C(=N\S(=O)(=O)c2ccc(C(=O)O)cc2)c2ccccc2C1=O | 1.41 µM (active) | – | – | 3.67 µM (active)
COc1ccc(-c2cc(-c3ccc(C)cc3)[nH]n2)c(O)c1 | – | 6.63 µM (active) | 76.5 µM (active) | –
Cc1ccc(NC2=C/C(=N/S(=O)(=O)c3cccs3)c3ccccc3C2=O)cc1 | 3.3 µM (active) | 0.359 µM (active) | 2.1 µM (active) | 0.119 µM (active)
O=C(Nc1ccc(C#Cc2ccccc2)cc1)C1CC1 | – | 3.38 µM (active) | 43.6 µM (active) | –
COC(=O)C[C@]1(C(=O)OC)CN(C#N)N(c2ccc(Cl)cc2)C12c1ccccc1-c1ccccc12 | – | – | – | 1.77 µM (active)
